Data reported in article PMC8129133, “Polymer-free corticosteroid dimer implants for controlled and sustained drug delivery” (Nature Communications, 2021).
“And” between values parts separate entries of the source, which are not always exact repeats. Identical values can stand only once. Like-named read-outs stand apart in the source and are kept apart here.

Columns and labels:
[1] = test system: LPS-induced stimulation of PGE2 production by primary human monocytes; experiment: LPS induced monocyte activation (PGE2 ELISA); format: cell-based; conditions: for % Activity: Fig 4h, PGE2 production, one line per donor; for IC50: primary human monocytes, N=3, read-out: IC50, inhibition of LPS-induced PGE2 production
Text: Monocytes were isolated from whole peripheral blood donated by healthy volunteers. Protocols were approved by Health Sciences Research Ethics Board (REB) at the University of Toronto (ethics approval #22203). All experiments were repeated with three distinct donors who provided informed consent. Briefly, whole blood was layered on Histopaque-1077 (Sigma) and the mononuclear cell fraction was isolated by density centrifugation. Platelets were removed through a series of washes. Monocytes were seeded at a density of 200,000/well in a 96-well plate (Becton Dickinson). Medium was changed 2 h post-seeding to remove non-adherent cells. […] Dex derived from degraded Dex-TEG-Dex was prepared by dissolving Dex-TEG-Dex in ethanol at 10 mg/ml, adding to culture medium to achieve a concentration of 10 µg/ml, and subsequent incubation of the solution at 37 °C and 5% CO2 until the dimer had fully degraded, as confirmed by HPLC. […] Samples were incubated for 15 min at 37 °C and 5% CO2, followed by addition of a 2 µl lipopolysaccharide stock solution (LPS, Sigma) to obtain a final concentration of 50 µg/ml. Following overnight exposure to LPS, supernatant was collected and analyzed for PGE2 using a PGE2 ELISA kit according to the manufacturer’s instructions (R&D Systems).

In vitro release = format: physicochemical; conditions: for Cumulative Dex Release (%), avg / Cumulative Dex Release (ng), avg / Cumulative Dex Release / Cumulative SM Release (%), avg / Cumulative SM Release (ng), avg: Fig 6c; for Cumulative Dex Release: single replicates; for Cumulative Pred Release: Fig 5a pellet 1x1 mm, 4 ml PBS; for Cumulative Pred Release / Cumulative TA Release: samples and avg; for Cumulative Pred Release (%): Fig 5a pellet, PBS; for Cumulative Dex Release (%), avg / Cumulative Dex Release (ng), avg / Cumulative Pred Release (%) / Cumulative TA Release (%) / Cumulative SM Release (%), avg / Cumulative SM Release (ng), avg: avg; for Cumulative TA Release (%): FBS
Description: Pellets for release studies. Crystalline drug dimers were weighed on a stainless steel coupon. In the case of blends with a second drug, the dimer and drug were mixed at the desired mass ratio with mortar and pestle prior to weighing. Samples were transferred to a heat press (Carver Laboratory Press). A PTFE mold containing an array of 1 mm diameter holes of 1 mm depth was placed on top of the melt, and pressure was applied for 2 min. Molded pellets were cooled to room temperature and punched out of the mold, yielding a pellet of 1 mm height × 1 mm diameter.
Release studies were carried out using different media, including PBS (pH 7.4, Gibco), 100% FBS (Sigma, F1051), 1% FBS in PBS pH 7.4, and 3.6% BSA (Sigma, A7906) in PBS (pH 7.4, Gibco). […] Samples were incubated in release medium at 37 °C under constant agitation on an orbital shaker at 115 rpm (VWR). At designated timepoints, sampling was performed by complete removal of medium and replenishment with fresh buffer. Sampling timepoints included 24 h and then every 3–4 days thereafter. For PBS release conditions, samples were analyzed directly. For samples with protein (100% FBS, 1% FBS, 3.6% BSA), protein was precipitated by addition of acetonitrile. Samples were vortexed and centrifuged to separate extracted drug from precipitated protein. The supernatant was then analyzed for drug concentration by HPLC.

C[C@@H]1C[C@H]2[C@@H]3CCC4=CC(=O)C=C[C@]4(C)[C@@]3(F)[C@@H](O)C[C@]2(C)[C@@]1(O)C(=O)CO [Dex from Degraded Dex-TEG-Dex]
% Activity ([1]; 0.05 nM, 50 pM): 133.56% and 95.05% and 109.87%
% Activity ([1]; 0.1 nM, 0.0001 µM): 71.31% and 70.97% and 72.68%
% Activity ([1]; 0.5 nM, 0.0005 µM): 92.91% and 70.93% and 94.26%
% Activity ([1]; 1 nM, 0.001 µM): 74.23% and 63.23% and 72.65%
% Activity ([1]; 5 nM, 0.005 µM): 59.75% and 37.69% and 27.50%
% Activity ([1]; 10 nM, 0.01 µM): 60.49% and 37.84% and 31.81%
% Activity ([1]; 100 nM, 0.1 µM): 63.88% and 16.49% and 17.83%
IC50 ([1]; listed as Dex from Dex-TEG-Dex): 0.93 ± 0.49 nM

C[C@@H]1C[C@H]2[C@@H]3CCC4=CC(=O)C=C[C@]4(C)[C@@]3(F)[C@@H](O)C[C@]2(C)[C@@]1(O)C(=O)CO [Dex, dexamethasone, reference compound]
Cumulative Dex Release (%), avg (In vitro release; Day 1): 0.0437%
Cumulative Dex Release (ng), avg (In vitro release; Day 1): 365.83 ng
Cumulative Dex Release (In vitro release; Day 1): 489.28 ng and 390.83 ng and 217.38 ng
Cumulative Dex Release (%), avg (In vitro release; Day 3): 0.15%
Cumulative Dex Release (ng), avg (In vitro release; Day 3): 1234.13 ng
Cumulative Dex Release (In vitro release; Day 3): 1469.66 ng and 1518.28 ng and 714.45 ng
Cumulative Dex Release (%), avg (In vitro release; Day 8): 0.45%
Cumulative Dex Release (ng), avg (In vitro release; Day 8): 3751.80 ng
Cumulative Dex Release (In vitro release; Day 8): 4281.72 ng and 3939.60 ng and 3034.10 ng
Cumulative Dex Release (%), avg (In vitro release; Day 10): 0.56%
Cumulative Dex Release (ng), avg (In vitro release; Day 10): 4651.15 ng
Cumulative Dex Release (In vitro release; Day 10): 5032.13 ng and 5126.71 ng and 3794.60 ng
Cumulative Dex Release (%), avg (In vitro release; Day 14): 0.78%
Cumulative Dex Release (ng), avg (In vitro release; Day 14): 6525.91 ng
Cumulative Dex Release (In vitro release; Day 14): 7249.57 ng and 6858.64 ng and 5469.52 ng
% Activity ([1]; 0.05 nM, 50 pM): 141.66% and 109.12% and 86.18%
% Activity ([1]; 0.1 nM, 0.0001 µM): 118.30% and 90.43% and 82.49%
% Activity ([1]; 0.5 nM, 0.0005 µM): 96.26% and 65.64% and 103.04%
% Activity ([1]; 1 nM, 0.001 µM): 66.03% and 45.78% and 57.92%
% Activity ([1]; 5 nM, 0.005 µM): 74.59% and 37.73% and 56.77%
% Activity ([1]; 10 nM, 0.01 µM): 69.04% and 28.95% and 33.87%
% Activity ([1]; 100 nM, 0.1 µM): 42.88% and 13.38% and 14.89%
IC50 ([1]; Monocyte): 1.52 ± 1.24 nM

CC12C=CC(=O)C=C1CCC1C2C(O)CC2(C)C1CCC2(O)C(=O)COC(=O)OCCOCCOCCOC(=O)OCC(=O)C1(O)CCC2C3CCC4=CC(=O)C=CC4(C)C3C(O)CC21C (stereo not drawn) [Pred-TEG-Pred]
Cumulative Pred Release (In vitro release; Day 1): 4849.98 ng and 3117.45 ng and 2848.01 ng
Cumulative Pred Release (In vitro release; Day 1, mean): 3605.15 ng
Cumulative Pred Release (In vitro release; Day 3): 9969.33 ng and 8304.40 ng and 8589.91 ng
Cumulative Pred Release (In vitro release; Day 3, mean): 8954.55 ng
Cumulative Pred Release (In vitro release; Day 7): 27879.94 ng and 24662.51 ng and 25461.45 ng
Cumulative Pred Release (In vitro release; Day 7, mean): 26001.30 ng
Cumulative Pred Release (In vitro release; Day 14): 55975.76 ng and 47712.14 ng and 52962.20 ng
Cumulative Pred Release (In vitro release; Day 14, mean): 52216.70 ng
Cumulative Pred Release (%) (In vitro release; Day 1): 0.38%
Cumulative Pred Release (%) (In vitro release; Day 3): 0.94%
Cumulative Pred Release (%) (In vitro release; Day 7): 2.72%
Cumulative Pred Release (%) (In vitro release; Day 14): 5.45%

CC1(C)OC2CC3C4CCC5=CC(=O)C=CC5(C)C4(F)C(O)CC3(C)C2(C(=O)COC(=O)OCCOCCOCCOC(=O)OCC(=O)C23OC(C)(C)OC2CC2C4CCC5=CC(=O)C=CC5(C)C4(F)C(O)CC23C)O1 (stereo not drawn) [TA-TEG-TA]
Cumulative TA Release (In vitro release; Fig 5b pellet 1x1 mm, 4 ml FBS, Day 3): 5664.02 ng and 5830.61 ng and 10508.43 ng and 8884.74 ng and 7887.68 ng
Cumulative TA Release (In vitro release; Fig 5b pellet 1x1 mm, 4 ml FBS, Day 3, mean): 7755.10 ng
Cumulative TA Release (In vitro release; Fig 5b pellet 1x1 mm, 4 ml FBS, Day 10): 24788.43 ng and 27087.36 ng and 33297.79 ng and 37315.92 ng and 18944.25 ng
Cumulative TA Release (In vitro release; Fig 5b pellet 1x1 mm, 4 ml FBS, Day 10, mean): 28286.75 ng
Cumulative TA Release (In vitro release; Fig 5b pellet 1x1 mm, 4 ml FBS, Day 14): 34850.40 ng and 35016.99 ng and 40361.16 ng and 49853.28 ng and 32172.64 ng
Cumulative TA Release (In vitro release; Fig 5b pellet 1x1 mm, 4 ml FBS, Day 14, mean): 38450.90 ng
Cumulative TA Release (%) (In vitro release; Fig 5b pellet, Day 1): 0.13%
Cumulative TA Release (%) (In vitro release; Fig 5b pellet, Day 3): 0.96%
Cumulative TA Release (%) (In vitro release; Fig 5b pellet, Day 7): 2.37%
Cumulative TA Release (%) (In vitro release; Fig 5b pellet, Day 10): 3.49%
Cumulative TA Release (%) (In vitro release; Fig 5b pellet, Day 14): 4.75%
Cumulative TA Release (In vitro release; Fig 5f microparticles, 10 ml FBS, 1st time point (day not given)): 2977.29 ng and 2848.37 ng and 4097.61 ng
Cumulative TA Release (In vitro release; Fig 5f microparticles, 10 ml FBS, 1st time point (day not given), mean): 3307.76 ng
Cumulative TA Release (In vitro release; Fig 5f microparticles, 10 ml FBS, 2nd time point (day not given)): 14594.84 ng and 16537.75 ng and 15417.43 ng
Cumulative TA Release (In vitro release; Fig 5f microparticles, 10 ml FBS, 2nd time point (day not given), mean): 15516.68 ng
Cumulative TA Release (In vitro release; Fig 5f microparticles, 10 ml FBS, 3rd time point (day not given)): 49825.05 ng and 51101.90 ng and 51098.83 ng
Cumulative TA Release (In vitro release; Fig 5f microparticles, 10 ml FBS, 3rd time point (day not given), mean): 50675.26 ng
Cumulative TA Release (In vitro release; Fig 5f microparticles, 10 ml FBS, 4th time point (day not given)): 60024.55 ng and 61820.14 ng and 64573.36 ng
Cumulative TA Release (In vitro release; Fig 5f microparticles, 10 ml FBS, 4th time point (day not given), mean): 62139.35 ng
Cumulative TA Release (In vitro release; Fig 5f microparticles, 10 ml FBS, 5th time point (day not given)): 83317.99 ng and 79582.57 ng and 89772.87 ng
Cumulative TA Release (In vitro release; Fig 5f microparticles, 10 ml FBS, 5th time point (day not given), mean): 84224.47 ng
Cumulative TA Release (%) (In vitro release; Fig 5f microparticles, 1st time point): 2.67%
Cumulative TA Release (%) (In vitro release; Fig 5f microparticles, 2nd time point): 12.50%
Cumulative TA Release (%) (In vitro release; Fig 5f microparticles, 3rd time point): 40.83%
Cumulative TA Release (%) (In vitro release; Fig 5f microparticles, 4th time point): 50.07%
Cumulative TA Release (%) (In vitro release; Fig 5f microparticles, 5th time point): 67.87%

CCN(CC)CCNC(=O)c1c(C)[nH]c(/C=C2\C(=O)Nc3ccc(F)cc32)c1C [sunitinib malate, reference compound]
Cumulative SM Release (%), avg (In vitro release; Day 1): 3.88%
Cumulative SM Release (ng), avg (In vitro release; Day 1): 5838.79 ng
Cumulative SM Release (%), avg (In vitro release; Day 3): 5.66%
Cumulative SM Release (ng), avg (In vitro release; Day 3): 8518.35 ng
Cumulative SM Release (%), avg (In vitro release; Day 8): 6.76%
Cumulative SM Release (ng), avg (In vitro release; Day 8): 10163.91 ng
Cumulative SM Release (%), avg (In vitro release; Day 10): 7.42%
Cumulative SM Release (%), avg (In vitro release; Day 14): 8.14%
Cumulative SM Release (ng), avg (In vitro release; Day 14): 12242.96 ng
